Reference: patent publication US20260167662A1, “MODIFIED […] GUANIDINO STRUCTURE IN BRIDGED PART AND METHOD FOR PRODUCING OLIGO[…] SAME” (LUXNA BIOTECH CO., LTD., priority 2022, published 2026)

Experiment: Stability test of amidite: 0.1 M solution in acetonitrile stored in the dark at room temperature, analysed by UHPLC
Format: physicochemical
Settings: 0.1 M in acetonitrile
Experimental: • Device used: ACQUITY Arc UHPLC system manufactured by Waters Corporation • Column: Xbridge BEH C18, 2.5 μm, 3.0×100 mm, Column XP manufactured by Waters Corporation • Mobile phase: Gradient
• Flow rate: 0.85 mL/min • Detection: PDA (200 to 400 nm) • Column temperature: 30° C. • Analysis time: 10.00 min
The amidite a3 (purity was 96.3%) obtained in Example 1, and an amidite a3′ (purity was 90.9%) synthesized according to the method described in Patent Document 5 were each dissolved in acetonitrile to prepare a 0.1 M solution.
Of the two 0.1 M solutions obtained, the solution containing the amidite a3 of Example 1 was stored in the dark at room temperature for 7 days. On the other hand, the solution containing the amidite a3′ of Patent Document 5 was stored in the dark at room temperature for 17 hours.
The UHPLC results of the amidites a3 and a3′ contained respectively in the stored solutions are shown in Tables 7 and 8, and the UHPLC-MS results of the amidites a3 and a3′ contained respectively in the stored solutions are shown in FIGS. 12 and 13.

Structure (SMILES) | % Area of main UHPLC peak after storage (stored for 7 days, retention time 7.335 min, purity before storage 96.3%) [%] | Stability in stored solution, compared by UHPLC peaks (a3 stored 7 days versus a3′ stored 17 hours) | % Area of main UHPLC peak after storage (stored for 17 hours, retention time 5.866 min, purity before storage 90.9%) [%]
COc1ccc(C(OC[C@]23CN(/C(=N/C(=O)OCC4c5cc(C(C)(C)C)ccc5-c5ccc(C(C)(C)C)cc54)NC(C)(C)C)C(C2OP(OCCC#N)N(C(C)C)C(C)C)[C@H](n2cc(C)c(=O)[nH]c2=O)O3)(c2ccccc2)c2ccc(OC)cc2)cc1 (stereo partly drawn) [amidite a3, di-tBu-Fmoc-GuNA[t-Bu]-T amidite] | 95.21 | more stable | –
COc1ccc(C(OC[C@@]23CN(/C(=N/C(=O)OCC4c5ccccc5-c5ccccc54)NC(C)(C)C)C([C@H](n4cc(C)c(=O)[nH]c4=O)O2)[C@H]3OP(OCCC#N)N(C(C)C)C(C)C)(c2ccccc2)c2ccc(OC)cc2)cc1 (stereo partly drawn) [amidite a3′, reference compound] | – | – | 76.00
